Measurements: patent US7001887B2, “Peptide derivatives” (priority 2001, dated 2006)
Like-named read-outs stand apart in the source and are kept apart here.

Assays:
human factor VIIa = human factor VIIa (Homo sapiens, UniProt P08709); test: biochemical
Procedure: 1. Assay for FVIIa-inhibiting Activity
A 10 vol % DMSO solution of a test compound (20 μL) was mixed with 40 μL Thromborel®S (50 mg/mL, Dade Behring, GTS-200A), 20 μL Spectrozyme®fVIIa (5 mmol/L, American Diagnostica Inc., #217L), 20 μL Tris buffer (500 mmol/L Tris/HCl, pH 7.5, 1500 mmol/L NaCl, 50 mmol/L CaCl2) and 80 μL distilled water, followed by stirring. […] The initial reaction velocity was set to 100% in the case of adding 10 vol % DMSO alone, instead of a test compound. […] This concentration was defined as an IC50 value.

human thrombin = biological target: T1, human thrombin (Homo sapiens, UniProt P00734); test: Assay for thrombin-inhibiting activity (chromogenic substrate FVR-pNa); format: biochemical; details: for Thrombin selectivity: ratio IC50 Thrombin / IC50 Factor VIIa
T1 construct: addition of 20 μ2L human thrombin (5 U/mL, SIGMA, T 1063); purchased SIGMA T 1063

[1] = 50% inhibition of initial reaction velocity, room temperature, absorbance at 405 nm, read-out: IC50 Thrombin

human factor VIIa, sequence (P08709 213-466 limits assumed): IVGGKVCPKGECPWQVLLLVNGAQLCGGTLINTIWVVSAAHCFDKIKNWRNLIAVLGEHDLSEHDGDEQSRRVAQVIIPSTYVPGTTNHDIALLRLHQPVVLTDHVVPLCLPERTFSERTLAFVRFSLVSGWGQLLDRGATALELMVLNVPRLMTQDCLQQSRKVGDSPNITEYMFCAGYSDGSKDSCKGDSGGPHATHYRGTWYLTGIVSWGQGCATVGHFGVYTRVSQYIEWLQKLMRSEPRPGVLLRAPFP
human factor VIIa, sequence (P08709 61-212 limits assumed): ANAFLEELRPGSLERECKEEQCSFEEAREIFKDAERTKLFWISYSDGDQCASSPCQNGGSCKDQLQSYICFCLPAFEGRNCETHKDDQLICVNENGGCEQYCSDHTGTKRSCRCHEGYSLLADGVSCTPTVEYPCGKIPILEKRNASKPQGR
human factor VIIa, sequence (P13726 33-295 partner): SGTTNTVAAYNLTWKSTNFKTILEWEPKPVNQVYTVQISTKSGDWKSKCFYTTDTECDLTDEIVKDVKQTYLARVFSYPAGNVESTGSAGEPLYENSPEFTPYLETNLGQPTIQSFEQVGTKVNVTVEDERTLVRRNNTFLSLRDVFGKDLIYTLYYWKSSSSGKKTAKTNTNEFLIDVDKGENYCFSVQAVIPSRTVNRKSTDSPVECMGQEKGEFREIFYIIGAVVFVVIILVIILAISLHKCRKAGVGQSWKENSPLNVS

Compound: CCS(=O)(=O)N[C@H](Cc1c[nH]c2ccccc12)C(=O)N[C@@H](CCC(N)=O)C(=O)NCc1ccc(C(=N)N)cc1 [Example 5, N-(Ethylsulfonyl)-D-tryptophyl-N^1-(4-amidinobenzyl)-L-glutamide]
- IC50 (human factor VIIa): 0.062 µM
- IC50 (human thrombin; [1]): 5.88 µM
- Thrombin selectivity (human thrombin): 95

Compound: N=C(N)c1ccc(CNC(=O)[C@H](CCC(N)=O)NC(=O)[C@@H](Cc2c[nH]c3ccccc23)NS(=O)(=O)Cc2cccc(C(=O)O)c2)cc1 [Example 7]
- IC50 (human factor VIIa): 0.037 µM
- IC50 (human thrombin; [1]): 17.9 µM
- Thrombin selectivity (human thrombin): 483

Compound: CCS(=O)(=O)N[C@H](Cc1c[nH]c2ccc(OCc3cccc(C(=O)O)c3)cc12)C(=O)N[C@@H](CCC(N)=O)C(=O)NCc1ccc(C(=N)N)cc1 [Example 22, 5-[(3-Carboxybenzyl)oxy]-N-(ethylsulfonyl)-D-tryptophyl-N^1-{4-[amino(imino)methyl]benzyl}-L-glutamide]
- IC50 (human factor VIIa): 0.039 µM
- IC50 (human thrombin; [1]): 17.5 µM

Compound: CCS(=O)(=O)N[C@H](Cc1ccc(-c2ccccc2)cc1)C(=O)N[C@@H](CCC(N)=O)C(=O)NCc1ccc(C(=N)N)cc1 [Example 65]
- IC50 (human thrombin; [1]): 9.42 µM

Compound: N=C(N)c1ccc(CNC(=O)[C@H](CCC(N)=O)NC(=O)[C@H](N)Cc2ccc(-c3ccccc3)cc2)cc1 [Example 66]
- IC50 (human factor VIIa): 2.94 µM
- IC50 (human thrombin; [1]): 59.1 µM
- Thrombin selectivity (human thrombin): 20

Compound: CCS(=O)(=O)N[C@H](Cc1ccc(-c2ccccc2)cc1)C(=O)N[C@@H](CCSC)C(=O)NCc1ccc(C(=N)N)cc1 [Example 67]
- IC50 (human factor VIIa): 0.341 µM
- IC50 (human thrombin): 2.28 µM
- Thrombin selectivity (human thrombin): 1

Compound: CCS(=O)(=O)N[C@H](Cc1ccc(OC)cc1)C(=O)N[C@@H](CCC(N)=O)C(=O)NCc1ccc(C(=N)N)cc1 [Example 73]
- IC50 (human factor VIIa): 0.081 µM
- IC50 (human thrombin; [1]): 0.397 µM
- Thrombin selectivity (human thrombin): 5

Compound: CCS(=O)(=O)N[C@H](Cc1ccc(C(=O)c2ccccc2)cc1)C(=O)N[C@@H](CCC(N)=O)C(=O)NCc1ccc(C(=N)N)cc1 [Example 81]
- IC50 (human factor VIIa): 0.177 µM
- IC50 (human thrombin; [1]): 5.69 µM

Compound: CCS(=O)(=O)N[C@H](Cc1c[nH]c2ccc(C)cc12)C(=O)N[C@@H](CCC(N)=O)C(=O)NCc1ccc(C(=N)N)cc1 [Example 82]
- IC50 (human factor VIIa): 0.131 µM
- IC50 (human thrombin; [1]): 12.5 µM

Compound: CCCOc1ccc2[nH]cc(C[C@@H](NS(=O)(=O)CC)C(=O)N[C@@H](CCC(N)=O)C(=O)NCc3ccc(C(=N)N)cc3)c2c1 [Example 83]
- IC50 (human factor VIIa): 0.055 µM
- IC50 (human thrombin; [1]): 14.4 µM

Compound: N=C(N)c1ccc(CNC(=O)[C@H](CCC(N)=O)NC(=O)[C@@H](Cc2c[nH]c3ccccc23)NS(=O)(=O)CC(=O)O)cc1 [Example 146]
- IC50 (human factor VIIa): 0.153 µM
- IC50 (human thrombin; [1]): 80.2 µM
- Thrombin selectivity (human thrombin): 524

Compound: CCS(=O)(=O)N[C@H](Cc1c[nH]c2ccc(OC)cc12)C(=O)N[C@@H](CCC(N)=O)C(=O)NCc1ccc(C(=N)N)cc1 [Example 148]
- IC50 (human factor VIIa): 0.065 µM
- IC50 (human thrombin; [1]): 8.33 µM

Compound: CCS(=O)(=O)N[C@H](Cc1c[nH]c2ccc(OCc3ccccc3)cc12)C(=O)N[C@@H](CCC(N)=O)C(=O)NCc1ccc(C(=N)N)cc1 [Example 170]
- IC50 (human factor VIIa): 0.037 µM
- IC50 (human thrombin; [1]): 9.42 µM
